The text below walks through data of patent US8138357B2, “Compounds and their salts specific to the PPAR receptors and the EGF receptors and their use in the medical field” (Giuliani International Limited, priority 2005, dated 2012).

The test system of data set [1] is DLD-1 cells. In words: Cell death by Annexin V / propidium iodide FACS analysis. In kind it is cell-based, human. The note with it: 48 hours. Here is the method:
The effect of the compound 14 on colon epithelial cell death was also assessed. To this end, cells were cultured as indicated above for 2 days and then the fraction of Annexin V (AV) and/or propidium iodide (PI)-positive cells was evaluated using a commercially available kit (Beckmann Coulter™, Milan, Italy). To evaluate whether the effect of the compound 14 on colon epithelial cell death was dependent on caspase activity, cells were pre-incubated with z-VAD-fmk (40 μM), a pan-caspase inhibitor, for 1 hour prior to adding the compound 14 (1.5 mM). The fraction of AV and PI-positive cells was determined after 48 hours culture as indicated above.

For a further data set, the system named is HT-29, HT-115 and DLD-1. In words: Colon cancer cell growth by BrdU assay, three human colon carcinoma cell lines. In kind it is cell-based. The note with it: for anti-proliferative effect on colon cancer cell growth (in words): 0.5-10 mM; for anti-proliferative effect on colon cancer cell growth (in words) / inhibition at 10000 µM: 48 h; for inhibition at 10000 µM: Homo sapiens, Colon carcinoma cell, final concentration 10 mM; for cell death following precipitates in cell cultures: colon cancer cell cultures, Example 10. Here is the method:
For this purpose, three human colon carcinoma cell lines (i.e. HT-29, HT-115 and DLD-1) were used. These cell types were selected on the basis of the cyclooxigenase-2 (COX-2) expression. Indeed, HT-115 cells express a biologically active COX-2, HT-29 cells express a non-functional COX-2 isoform, and DLD-1 are COX-2-deficient cells.
(§1) HT-29 and DLD-1 cells were cultured in McCoy and RPMI1640 media respectively, supplemented with 10% fetal bovine serum (FBS), 1% penicillin/streptomycin (P/S) and 50 μg/ml gentamycin. HT-115 were cultured in DMEM medium supplemented with 15% FBS and 1% P/S. Cells were maintained in a humidified incubator at 37° C., in the presence of 5% CO2.
(§2) For cell growth assays, single-cell suspensions were plated at 2×10^3 cells/well (4×10^3 cells/well for HT115) in 96-well culture dishes in medium containing 0.5% FBS and allowed to adhere. The non-adherent cells were then removed, and fresh medium containing 0.5% FBS was added into each well. Cells were cultured in the presence or absence of the specified substances. Each substance was dissolved as a 25 mM stock solution in culture medium containing 0.5% FBS, and the pH of each stock solution was adjusted to 7.4, if necessary, with NaOH. Substances were used at a final concentration ranging from 0.5 to 10 mM. Cell proliferation was determined by measuring the incorporation of 5-bromo-2′-deoxyuridine (BrdU) into DNA using a commercially available cell proliferation kit (Roche Diagnostics™, Monza, Italy). BrdU was added to the cell cultures during the last 6 hours of incubation, and the level of BrdU-positive cells was assessed after 48 h culture by enzyme-linked immunosorbent assay (ELISA).
(§3) Optical density (OD) was determined at 450 nm using an ELISA reader. Experiments were performed in triplicate and the results are reported as the mean±standard deviation (SD).

Data set [2] concerns DLD-1 cells. The data set can be described thus: Cell growth by colorimetric BrdU incorporation assay, DLD-1. The note with it: Homo sapiens, 48 hours; for inhibition at 500 µM: 0.5 mM; for inhibition at 1000 µM: 1 mM; for inhibition at 2500 µM: 2.5 mM; for inhibition at 5000 µM: 5 mM; for inhibition at 10000 µM: 10 mM. Format: cell-based. Here is the method: as §1, §2, §3
On the technique in general: Uptake of a labelled nucleoside into DNA is a usual measure of proliferation.

The nature of data set [3]: Solubility in drug solutions / culture medium. In kind it is physicochemical. The note with it: for precipitates in cell cultures: colon cancer cell cultures.
The subject of the next data set is HT-29 STD cells. In words: Cytotoxic effect on epithelial cells seen in the HT-29 experiments. The note with it: 30 mM, HT-29 cells. Format: cell-based, human. Here is the method: HT-29 STD cells were transiently transfected using the Effectene™ transfection reagent (Qiagen™) according to instructions from the manufacturer. To test PPARγ activation, we performed transfection with 500 ng of a minimal promoter construct containing two copies of PPRE obtained from the cytochrome p450 4A (2XCYP) (1). The renilla luciferase plasmid ([…]) was also transfected as an internal control for monitoring transfection efficiency and for normalizing the firefly luciferase activity. Transfected cells were left for 48 hours incubation at 37° C. […] The pH of the drug solutions was adjusted to 7.4 with NaOH. Total cell extracts were prepared using the Passive Lysis Buffer (Promega™, Madison, Wis.). Luciferase activity was assayed in 20 μl of the extract using the Promega™ Dual Luciferase assay system according to the manufacturer's protocol. Transfections were assayed in triplicate in at least three separate experiments. The luciferase activity was expressed as fold of the activity obtained in cells treated with the different molecules divided by luciferase activity from non-stimulated cells.
After 24 h of culture, HT-29 STD cells were treated during 24 h with the new molecules 13, 14, 17, 26 and 31, at 30 mM. […] The pH of the drug solutions was adjusted to 7.4 with NaOH. Cells were fixed in PFA 4%, permeabilized in PBS containing 0.1% Triton X-100™ at 4° C. and then incubated with goat normal serum and blocking buffer (1% BSA in PBS) to minimize non-specific adsorption of the antibody.
After 24 h of culture, HT-29 STD cells were treated during 24 h with the new molecules 13, 14, 17, 26 and 31, at a concentration of 30 mM. […] The pH of the drug solutions was adjusted to 7.4 with NaOH. Cells undergoing apoptosis were identified by enzymatic labelling of DNA strands using a terminal transferase dUTP nick end labelling assay (TUNEL assay, Roche Diagnostics™, Meylan, France). Counts of at least 500 cells/sample were systematically performed blindly in one experiment. The results were expressed as the mean±SEM of the number of stained cells.

Data set [4] concerns DLD-1 cells. The data set can be described thus: CFSE flow cytometry of cell proliferation. In kind it is cell-based, human. The note with it: 48 hour treatment, untreated 90±4%. Here is the method: To assess further the effect of the compound 14 on colon epithelial cell growth, serum-starved DLD-1 cells were incubated in 0.2 μM carboxyfluorescein diacetate succinimidyl ester (CFSE) (Invitrogen™, Milan Italy) at 37° C. for 30 minutes, then extensively washed and cultured with or without the addition of the compound. After 2 days culture, CFSE fluorescence was evaluated and the proportion of cells undergoing divisions was determined, thus allowing calculation of both precursor frequency and proliferative index.
On the technique in general: In flow cytometry, cells or beads pass a laser one at a time.

Another data set concerns PPARγ. In words: PPARγ protein expression by western blot in HT-29 cells. Format: cell-based, human. To be noted: 30 mM, 24 hours, HT-29, relative to β-actin. On the procedure:
The total proteins were obtained by cell homogenization in an extraction buffer consisting of PBS with 2% Triton™, Phenyl Methyl Sulphonyl Fluoride (PMSF) 100 mM and a classical protease inhibitor cocktail (2). The total proteins were then separated by polyacrylamide gel electrophoresis and electroblotted. Polyvinylidendifluoride (PVDF) membranes were incubated overnight with rabbit polyclonal primary antibody directed against PPARγ (dilution 1/500, TEBU, Le Perray en Yveline, France). β-actin was detected using a rabbit monoclonal primary antibody diluted at 1/10,000 (Sigma). Immunodetection with a secondary peroxidase-conjugated antibody (1/1000, Dako™, Trappes, France) and chemiluminescence was performed according to the manufacturer's protocol (ECL™, Amersham Pharmacia Biotech™, Orsay, France). Optical density values of PPARγ were given for each condition in proportion to the quantity of the internal control β-actin in the same sample (2).
On the technique in general: A western blot detects proteins with antibodies after separation by electrophoresis.

Molecules are shown by their SMILES. Entries after “also recorded” stand apart in the source; their conditions may differ. Residues, ends and D or L forms follow the SMILES beside them. *: point of attachment. Cbz = O=C(OCc1ccccc1)*; CH2F = FC*

For the compound `COC(=O)C[C@H](NC(=O)[C@H](C)NC(=O)[C@@H](NC(=O)OCc1ccccc1)C(C)C)C(=O)CF` [Z-VAD, z-VAD-fmk, reference compound] (Cbz-Val-Ala-Asp(OMe)-CH2F), the “percentage of AV/PI-positive cells in cells treated with compound 14” value with DLD-1 cells [1] (preincubation z-VAD-fmk 40 μM 1 hour, then compound 14 1.5 mM) is recorded as “largely reduced”.

For the compound `COc1cc(N)ccc1C(=O)NO` [compound 13, 4-amino-N-hydroxy-2-methoxybenzamide], in the data set with HT-29, HT-115 and DLD-1, the “anti-proliferative effect on colon cancer cell growth (in words)” value (“anti-proliferative effect” for short) is “marked anti-proliferative effect; also recorded: most powerful suppressors of colon cancer cell growth”, the inhibition at 10000 µM is over 90% and the “cell death following precipitates in cell cultures” value is reported as “massive cell death”. In the data set with DLD-1 cells [2], this compound displayed an inhibition at 500 µM of 21.1%, an inhibition at 1000 µM of 73%, an inhibition at 2500 µM of 92.7% and an inhibition at 5000 µM of 96.3%. In the data set on DLD-1 cells [2], this compound gave an inhibition at 10000 µM of 96.4%. Moreover, in data set [3] (Example 10), the “precipitates in cell cultures” value was “precipitates developed”. Also, the “cytotoxic effect on epithelial cells” value in the data set on HT-29 STD cells is “rapid cytotoxic effects”.

Consider `COc1ccc(N)cc1C(=O)NO` [compound 14, 5-amino-N-hydroxy-2-methoxybenzamide], for which, in the data set with DLD-1 cells [1] (1.5 mM, p<0.01), the “cell death (AV and/or PI-positive cells)” value is listed as “significantly enhances DLD1 cell death”. Besides, the “cell death (AV and/or PI-positive cells)” value in the data set with DLD-1 cells [1] (3 mM, p<0.001) is reported as “significantly enhances DLD1 cell death”. For the same compound, in the data set with HT-29, HT-115 and DLD-1, the “anti-proliferative effect” value is on record as “marked anti-proliferative effect; also recorded: most powerful suppressors of colon cancer cell growth” and the inhibition at 10000 µM is over 90%. The “fraction of proliferating cells” value in the data set with DLD-1 cells [4] (0.5 mM) is 48±7%. Moreover, in the data set with DLD-1 cells [4] (1 mM), the “fraction of proliferating cells” value is 21±11%. The “fraction of proliferating cells” value in the data set with DLD-1 cells [4] (2.5 mM) is reported as 11±6%. Moreover, in the data set on DLD-1 cells [2], the inhibition at 500 µM was found to be 22.8%, at 1000 µM the inhibition was 36%, at 2500 µM the inhibition was 76.5% and at 5000 µM the inhibition was 90.5%. Also, 10000 µM produced 94.1% inhibition with DLD-1 cells [2]. The “cytotoxic effect on epithelial cells” value in the data set on HT-29 STD cells is given as “rapid cytotoxic effects”.

With `CCOc1ccc(N)cc1C(=O)NO` [compound 26, 5-amino-2-ethoxy-N-hydroxybenzamide], in the data set with PPARγ, the “induction of PPARγ protein levels quantified by western blot” value is on record as 2 fold. Besides, in the data set with HT-29, HT-115 and DLD-1, the “anti-proliferative effect” value was “marked anti-proliferative effect”. In the data set on DLD-1 cells [2], this compound registered an inhibition at 500 µM of 13.6%, an inhibition at 1000 µM of 19%, an inhibition at 2500 µM of 62% and an inhibition at 5000 µM of 86%. In the data set with DLD-1 cells [2], this compound had an inhibition at 10000 µM of 94.5%. Besides, in the data set on HT-29 STD cells, the “cytotoxic effect on epithelial cells” value was “rapid cytotoxic effect”.

As for `CC1(C)OC(=O)c2cc(N)ccc2O1` [compound 28, 6-amino-2,2-dimethyl-4H-benzo[1,3]dioxin-4-one], the “solubility in the culture medium” value in data set [3] (culture medium, Example 10) is given as “not soluble in the culture medium”.

Consider `CC(C)N(c1ccc(O)c(C(=O)O)c1)C(C)C` [compound 38, 5-diisopropylaminosalicylic acid], for which, in the data set on HT-29, HT-115 and DLD-1, the “anti-proliferative effect” value is recorded as “marked anti-proliferative effect; also recorded: most powerful suppressors of colon cancer cell growth” and the “cell death following precipitates in cell cultures” value was “massive cell death”. In addition, in the data set with DLD-1 cells [2], the inhibition at 500 µM is 6%, testing at 1000 µM gave an inhibition of 11.1%, the inhibition at 2500 µM was found to be 51.9% and the inhibition at 5000 µM was 85.9%. Besides, the inhibition at 10000 µM in the data set with DLD-1 cells [2] amounted to 94.5%. Also, the “precipitates in cell cultures” value in data set [3] (Example 10) is “precipitates developed”. In data set [3] (drug solutions for HT-29 experiments, 30 mM, pH 7.4), the solubility result is “poor solubility”. Also, the “cytotoxic effect on epithelial cells” value in the data set with HT-29 STD cells is “rapid cytotoxic effect”.

Broadly, the inhibition is the percentage by which the read-out fell short of the control. Low values mean a response near the control, high ones a response far below the control.
